Assays:
[1] = test system: serum-starved bovine PASMC; test: Anti-proliferative efficacy in serum-starved bovine PASMC; assay type: cell-based; details: 1.5-5.0 μM, time- and concentration-dependent
Description: Data represent mean±SD (n=5) repeated over 3 experiments. *p<0.05.
(§1) Human or bovine PASMC were treated with varying concentrations of QA (1.5-, 3.1-, and 6.2-μM). Cellular proliferation was measured at day 1, day 3 and day 5 by following the manufacturer's protocol. Briefly, a reagent mix of nucleic acid stain and background suppressor were added in PBS followed by addition of the mix in treatment wells (100 μL/well). The plates were incubated at 37° C./5% CO2 for one hour followed by evaluation of fluorescence at 485 ex/535 em. Proliferation inhibition was analyzed relative to control wells on each time point. Data was averaged from two trials with n=6 for SMC II and one trial of n=4 for SMC III.
In-vitro studies to measure anti-proliferative activity of QA against pulmonary hypertension were performed using primary human PASMC (FIG. 3), primary bovine PASMC (FIG. 4) and high altitude PASMC (HAPASMC) (FIG. 4). HAPASMC, due to prolonged hypoxia exposure, are known to be hyper-proliferative in regular culture conditions, while hyper-proliferation was induced in PASMC cells by 24 hour serum starvation, or by exposure to 5-hydroxytryptamine (5-HT). […]

primary human PASMC = test: Standard cell proliferation, CyQUANT Direct; assay type: cell-based; details: Day 3 and Day 5, single QA treatment at 3.1 and 6.2 μM
Description: (§2) Primary human PASMC were treated with QA up to 6.2 μM concentration. Cell proliferation was quantified by Cyquant Direct.
Cellular proliferation for diseased IPAH SMC II (Patient ID: L164) cells was evaluated using CyQUANT™ Direct Cell Proliferation Assay (ThermoFisher Scientific, Waltham, MA, USA). Briefly, upon 90% confluency, SMCs were harvested and seeded in TC-treated 96-well plates at a density of 1000 cells/well and were allowed to adhere overnight.
as §1
In-vitro studies to measure anti-proliferative activity of QA against pulmonary hypertension were performed using primary human PASMC (FIG. 3), primary bovine PASMC (FIG. 4) and high altitude PASMC (HAPASMC) (FIG. 4). […]

[2] = test system: MCT-induced rodent model of pulmonary hypertension; test: Monocrotaline (MCT) induced therapeutic rat model of pulmonary hypertension, hemodynamics; assay type: in vivo; details: MCT rats, QA 10 mg/kg s.c. once-a-day for 10 days starting 3 weeks after MCT
Description: Adult male SD rats were injected with MCT (50 mg/kg) by subcutaneous injection. QA administration was initiated 21 days (3 weeks) after MCT administration, once-a-day by subcutaneous route at 10 mg/kg for 10 days. […] Data represent mean±SEM (n=5). *p<0.05.
Preclinical in-vivo studies for QA were earlier performed at a dose of 10 mg/kg once-a-day in monocrotaline (MCT) induced therapeutic PAH model. Hemodynamic parameters were collected and lung tissues were also collected and were sectioned for visualizing the impact of QA treatment on various PAH biomarkers in-vivo.
To determine the therapeutic activity of QA against PH, the drug was tested using chronic hemodynamic studies in a monocrotaline (MCT)-induced rodent model of pulmonary hypertension. MCT induction is a well established preliminary model, with a single subcutaneous injection of MCT producing chronic PH-like symptoms in rats over a course of 3-4 weeks. Briefly, MCT was subcutaneously injected in adult male Sprague Dawley (SD) rats at 50 mg/kg, and rats were housed for 3 weeks with free access to food and water. […] At the end of day 10, animals were anesthetized to determine right ventricular systolic pressure (RVSP) by RV catheterization, and RV hypertrophy (RVH) was measured by collecting the heart-lung blocks.

[3] = test system: p62, BMPR2, LC3B-II, p21, p65, phospho-AKT, phospho-p65 in right lung; test: SU5416/hypoxia model, western blot of right lung homogenate; assay type: in vivo, rat
Source text: FIGS. 18E-18F show western blot analysis of tissue (right lung) lysates for expression of various disease marker proteins including p62, BMPR2, LC3B-II, p21, p65, p53, phosphorylated-p53 and phosphorylated-AKT using corresponding monoclonal antibodies.
The accumulation of p62, a protein degraded by autophagy pathways, is indicative of autophagy inhibition.

[4] = test system: serum starved human PASMC; test: Proliferation after cell starvation, CyQUANT Direct; assay type: cell-based; details: Day 5 at 3.1 and 6.2 μM, Day 3 at 6.2 μM
Description: as §2
Briefly, diseased IPAH SMC II cells were seeded in TC-treated 96 well plates in FBS-rich medium and were allowed to adhere overnight. Following day, FBS-rich media was replaced with FBS-Starved media (0% FBS). Cells were further incubated at 37° C./5% CO2 for 24 hours followed by treatments with varying concentrations of QA (1.5-, 3.1-, and 6.2-μM) with dilutions being made in FBS-Starved media. Cellular proliferation was measured as described herein.
In-vitro studies to measure anti-proliferative activity of QA against pulmonary hypertension were performed using primary human PASMC (FIG. 3), primary bovine PASMC (FIG. 4) and high altitude PASMC (HAPASMC) (FIG. 4). HAPASMC, due to prolonged hypoxia exposure, are known to be hyper-proliferative in regular culture conditions, while hyper-proliferation was induced in PASMC cells by 24 hour serum starvation, or by exposure to 5-hydroxytryptamine (5-HT). […] As hyper-proliferation of vascular smooth muscle cells is one of the primary underlying causes for clinical progression of PH pathogenesis, these experiments highlight the therapeutic potential of QA in reversing PH symptoms and progression at non-toxic doses.

[5] = test system: serum-starved bovine PASMCs; test: Annexin V FITC assay (apoptotic induction); assay type: cell-based; details: 2.5 or 5 μM, 24 hours, concentration-dependent
Description: In FIGS. 9A-9B, PASMC were serum starved for 24 hours, and then treated with varying QA concentrations in serum-starved media. Quantification was performed using Cyto-ID® autophagy kit and Annexin-V/FITC apoptosis kit. […] In FIG. 9C, autophagy inhibition by QA (5 μM) as depicted by increase in LC3B-II concentration in bovine high altitude PASMC quantified by western blot assay kit. Data represent mean±SD (n=3). *p<0.05.
Bovine PASMC were serum starved in FBS-free media for 24 hours, and then treated with QA for 24 hours at various concentrations (0, 2.5, or 5 μM). Annexin V levels were measured with Annexin V FITC assay kit (#600300, Cayman Chemical, Ann Arbor, MI) according to manufacturer's manual.
An apoptotic induction assay, i.e., Caspase-3 assay was performed to understand QA's impact on cellular apoptosis in primary human PASMCs following 6-hour treatment. […] Moreover, another apoptotic induction assay, i.e., Annexin V FITC assay was also used to measure the effects of QA on serum-starved bovine PASMCs.
In other independent experiments, QA's ability to modulate autophagy/apoptotic pathways was quantified in vitro in serum-starved bovine PASMC cells. Similar results were observed.

[6] = test system: IL-6, Acta2, serpinel, Id3, BMPR2 mRNA; test: SU5416/hypoxia model, mRNA expression by real time PCR; assay type: in vivo, rat; details: SU5416/hypoxia rats

## CCN(CC)CCCC(C)Nc1c2ccc(Cl)cc2nc2ccc(OC)cc12 (centres unmarked) [QA, quinacrine]
[1]
  proliferation: significantly inhibits proliferation
Primary human PASMC
  cellular hyper-proliferation: Significant reduction
[2]
  right ventricular systolic pressure (RVSP): 39.9±1.8 mm Hg
[3]; right lung homogenate
  autophagy marker LC3B-II: accumulated
  autophagy marker p62: accumulated
[3]; right lung homogenate, in comparison to control animals
  accumulation of BMPR2: > 2 fold
[3]; tissue lysates
  expression of p21 protein: significant increase
  expression of phospho-AKT: decreased
  expression of phospho-p65: decreased
  p65: significant reduction
[4]
  cellular hyper-proliferation: Significant reduction
[5]
  apoptotic induction (fluorescence intensity of Annexin-V stained cells): significantly enhanced apoptotic induction
[6]
  BMPR2 mRNA expression: no significant changes
[6]; real time PCR
  Acta2 gene (smooth muscle actin-alpha) expression: decreased
  IL-6 mRNA levels: decreased
  Id3 mRNA level: did not significantly change
  mRNA levels of serpinel: reduced
